In a melting point compilation (Tetko et al.; mined from patent text by program, amines drawn as free bases though some values may be those of a salt):

First: Cc1nc(N2CCN(CC3CCCC3)C2=O)sc1C(=O)NCc1cccnc1
Second: CC(CN1CCCC1)N1c2ccccc2Sc2ccc(C(=O)NCc3cccc(Cl)c3)cc21 (racemic)
The melting point of the first is higher: 142 to 143 °C for the first, 80 °C for the second.

First: O=C(NCc1ccnc(Cl)c1)c1[nH]c2ccc(Cl)cc2c1S(=O)(=O)c1ccccc1
Second: CN1C(=O)C(NC(=O)CCc2ccc(Cl)cc2Cl)N=C(c2ccccc2)c2ccncc21 (centres undefined)
The melting point of the first is higher: 263 to 265 °C for the first, 220 to 221 °C for the second.

First: COc1ccc(OC(c2ccc(OC)cc2)C(Cl)(Cl)Cl)cc1 (centres undefined)
Second: COc1ccc(Nc2cccc(Cl)c2[N+](=O)[O-])cc1
The melting point of the first is higher: 90 °C for the first, 73 to 74 °C for the second.

Compared with `NS(=O)(=O)c1ccc(-c2c(CC(O)c3ccc(Cl)cc3)noc2-c2ccccc2)cc1` (centres undefined), `CS(=O)(=O)c1ccc(-n2cncc2-c2ccc(Cl)cc2)cc1` is higher in melting point: 165 to 167 °C for the first, 192 to 193 °C for the second.

First: CC(C)(C)OC(=O)N[C@H](Cc1ccc(Cl)c(Cl)c1)C(=O)N1CCC[C@H]1C(=O)NCC1CCc2n[nH]cc2C1 (some centres undefined)
Second: COc1cc(N)c(Cl)cc1C(=O)CCC1CCN(C(=O)OC(C)(C)C)CC1
The melting point of the first is lower: 100 to 103 °C for the first, 133 to 134 °C for the second.

First: Cc1nc(C(Br)Br)nc(C(Br)Br)n1
Second: COc1nc(Cl)nc(Nc2ccc(OC(=O)C(C)(C)Br)cc2)n1
The melting point of the first is lower: 87 to 88.5 °C for the first, 107 to 108 °C for the second.

Compared with `CC(C)n1cc(-c2nc(C(N)=O)c(N)nc2-c2cccc(F)c2)ccc1=O`, `COc1ccnn2c(-c3ccnc(N)c3)c(-c3ccc(F)c(C)c3)nc12` is lower in melting point: 259 °C for the first, 219 to 220 °C for the second.

First: CCOC(=O)/C=C(C)/C(F)=C/C=C(C)/C=C/c1c(C)cc(C)c(Cl)c1C
Second: CCOC(=O)C(=O)c1cc(C)c(C(=O)c2ccccc2[N+](=O)[O-])n1C
The melting point of the first is lower: 100 to 104 °C for the first, 138 to 140 °C for the second.

First: CC(C)C[C@H](NC(=O)[C@H](Cc1cccc2ccccc12)NC(=O)OCc1ccccc1)C(=O)NN
Second: O=C(O)C(Cc1ccccc1)C(=O)NCc1cccc2ccccc12 (centres undefined)
The melting point of the first is higher: 200 to 204 °C for the first, 142 to 145 °C for the second.

First: N#Cc1ncncc1-c1ccc(CBr)cc1
Second: CC(C)c1ccc(-c2c(Cl)ncnc2Cl)cc1
The melting point of the first is higher: 114 to 116 °C for the first, 69 to 70 °C for the second.

`CCOC(=O)NCC(CC)C(NC(=O)OCC)NC(=O)OCC` (centres undefined) and `COC(=O)[C@H](C)N(C(=O)[C@H](CC(C)C)NC(=O)OC(C)(C)C)c1ccc(F)cc1` cannot be ordered by melting point: 120 to 122 °C for the first, 121 to 122 °C for the second.

Compared with `CCC1(CC)c2cc(CO)c(CO)cc2C(CC)(CC)N1Cc1ccccc1`, `OCc1cccnc1Nc1ccccc1` is higher in melting point: 155 to 158 °C for the first, 180 to 182 °C for the second.

Compared with `CC(=O)c1cc(Cl)c(OCCOc2ccc3ccccc3c2)c(Cl)c1`, `COc1cccc(C(=O)c2sc3cc(OC)ccc3c2-c2ccccc2)c1` is lower in melting point: 110 to 111 °C for the first, 101 to 103 °C for the second.

First: O=C(O)CNC(=O)NC(CSC(=O)Nc1ccccc1)Cc1ccccc1 (centres undefined)
Second: O=C1NCCN1C(c1ccccc1)c1ccccc1
The melting point of the first is lower: 179 to 181 °C for the first, 200 to 202 °C for the second.

Compared with `Cc1ccc(N)c(C(=O)CS(C)=O)c1` (centres undefined), `CCOC(=O)c1ccc(NC(=O)C(C)C)c([N+](=O)[O-])c1` is lower in melting point: 145 to 147 °C for the first, 74 to 76 °C for the second.

First: COc1ccc2[nH]cc(S(=O)(=O)c3ccccc3)c2n1
Second: Cc1ccc(S(=O)(=O)OCCc2cccc3c(S(=O)(=O)c4ccccc4)c[nH]c23)cc1
The melting point of the first is higher: 223 to 225 °C for the first, 142 to 145 °C for the second.

First: O=C1N(CCN(c2ccccn2)c2ccccn2)c2ccccc2C12COc1cc3c(cc12)OCO3 (centres undefined)
Second: Cc1cccc(NC(=O)NC2N=C(c3ccccc3F)c3ccccc3N(Cc3nccc4c3CCCC4)C2=O)c1 (racemic)
The melting point of the first is lower: 165 to 167 °C for the first, 207 to 210 °C for the second.

Compared with `CN1C(=O)CCC(C)(C)c2cc(Nc3ncc(Cl)c(Nc4ccccc4S(=O)(=O)N(C)C)n3)ccc21`, `CCCC=CCC1CC(=O)N(c2cc(Cc3n[nH]c(=O)c4ccccc34)ccc2F)C1=O` (centres undefined) is lower in melting point: 198 to 200 °C for the first, 146 to 149 °C for the second.

First: CN(C(=O)Nc1nc(OCC(F)(F)F)cc(OCC(F)(F)F)n1)c1ccc(Br)cc1
Second: FC(F)(F)COc1ccccc1Sc1nc[nH]n1
The melting point of the first is higher: 110 to 111 °C for the first, 100 to 101 °C for the second.

Compared with `CCOc1cc2c(cc1OC)C(c1ccc(OC)c(OC)c1)=NN=C(C)C2CC` (centres undefined), `COc1ccc(CC(CCCC(C#N)(c2ccc(OC)c(OC)c2)C(C)C)[N+](=O)[O-])cc1OC` (centres undefined) is lower in melting point: 125 to 127 °C for the first, 107 to 110 °C for the second.

Compared with `CN(CCCN1C(=O)CSC1c1cc(C(C)(C)C)c(O)c(C(C)(C)C)c1)CCOc1ccc2c(c1)OCO2` (centres undefined), `CCOC(=O)c1ccc(N2CCN(C(=O)CCc3cc(C(C)(C)C)c(O)c(C(C)(C)C)c3)CC2)cc1` is higher in melting point: 70 to 71 °C for the first, 85 to 86 °C for the second.

First: CC(=O)NCCCc1nc2cc(C3=NNC(=O)CC3C)ccc2[nH]1 (centres undefined)
Second: CC1SC(=O)NN=C1c1ccc2c(c1)C(=Cc1cccs1)C(=O)N2 (centres undefined)
The melting point of the first is lower: 244 to 246 °C for the first, 287 °C for the second.

First: [N-]=[N+]=NCC1OC(n2cc(C=CBr)c(=O)[nH]c2=O)CC1Cl (centres undefined)
Second: [N-]=[N+]=NCC1Cc2c[nH]c3cccc(c23)C(=O)N1 (centres undefined)
The melting point of the first is lower: 58 to 60 °C for the first, 152 to 153 °C for the second.

Compared with `Cc1cnc2c(=O)[nH]c3ccccc3n12`, `CC(=O)N1CCc2c([nH]c3ccccc23)C1` is lower in melting point: greater than 300 °C for the first, 240 to 241 °C for the second.

First: CC(C)N(C(=O)n1oc(=O)n(C)c1=O)c1ccc(Cl)cc1
Second: CNS(=O)(=O)OCCOc1ccc(Cl)cc1
The melting point of the first is higher: 121 to 123 °C for the first, 101 to 104 °C for the second.

First: CCn1c2ccccc2c2cc(C=Cc3ccc(N)cc3)ccc21
Second: COc1ccc(C[C@@H](NC(=O)c2cccc3ccccc23)[C@@H](O)c2ccc(F)cc2)cc1 (racemic)
The melting point of the first is lower: 131 to 132 °C for the first, 198 to 199 °C for the second.

Compared with `O=c1cc(OCc2ccccc2)cc(CC(O)c2ccc(OCc3ccccc3)c(OCc3ccccc3)c2)o1` (centres undefined), `COc1cnc(NCCNCC(O)COc2ccccc2)c2ccccc12` (centres undefined) is higher in melting point: 109 to 110 °C for the first, 152 to 153 °C for the second.

First: Cc1sc2c(c1C)C(c1ccc(Cl)cc1)=NC(N)c1nnc(C)n1-2 (centres undefined)
Second: CCOC(=O)c1c(C)nn(-c2ccc(Br)cc2)c1C
The melting point of the first is higher: 192 to 197 °C for the first, 71 to 73 °C for the second.

Compared with `C#Cc1cc(=O)n2nc(S(=O)(=O)Cc3ccccc3)sc2n1`, `Nc1cc(C2CC2)nn1C(=O)Nc1ccccc1` is lower in melting point: 101 to 106 °C for the first, 97 to 99 °C for the second.

First: O=C1CCc2cc(Oc3ccc(F)cc3F)c([N+](=O)[O-])cc21
Second: COc1cc2c(cc1[N+](=O)[O-])-c1c(-c3cccs3)c3c(n1CC2)C(=O)N(C(C)(C)C)CC3
The melting point of the first is lower: 145 °C for the first, 226 to 227 °C for the second.

First: CSc1nc2ccc(Br)cc2c2nn(-c3ccc(C)cc3)c(=O)n12
Second: Cc1ccc2c(=O)n3nc(C)cc3[nH]c2n1
The melting point of the first is lower: 213 °C for the first, greater than 300 °C for the second.

Going from `Cc1csc2[nH]c(C(=O)c3ccccc3)cc12` to `Nc1ccc(C(=O)c2cccnc2)cc1`, the melting point falls from 199 °C to 107 °C.

Compared with `CCOC(=O)COc1cc(OC)c2c(c1[N+](=O)[O-])OC1(CCCCC1)CC2=O`, `CCSC(=O)OCOC(=O)COc1nc(Cl)c(Cl)cc1Cl` is lower in melting point: 142 to 143 °C for the first, 70 to 71 °C for the second.

First: Nc1nc2c(=O)c3cc(Cl)ccc3oc2cc1-c1nnn[nH]1
Second: Cc1nsc(NC(=O)C(C)c2ccc3oc(-c4cccc(Cl)c4Cl)nc3c2)c1Cl (centres undefined)
The melting point of the first is higher: greater than 300 °C for the first, 158 to 161 °C for the second.

Compared with `CCCCCCCC(=O)NC(=O)OCc1nc(C(C)C)c(Sc2cc(Cl)cc(Cl)c2)n1CC`, `CCOC(=O)c1cc(CCCOCCCCCCNCC(O)c2cc(Cl)c(N)c(Cl)c2)ccn1` (centres undefined) is lower in melting point: 99 to 101 °C for the first, 68 to 70 °C for the second.

Compared with `CC1(C=O)CC1(c1cccc(F)c1)c1cccc(F)c1` (centres undefined), `COc1cccc(-c2ccnc3ncnn23)c1` is higher in melting point: 92 to 93 °C for the first, 163 to 165 °C for the second.

First: CCCCCCNC(=O)OCCCNC(=O)OC1CCN(C(=O)Oc2ccc(Oc3ccccc3)cc2)CC1
Second: CCCc1c(OCCCCOc2ccc(C(=O)c3cccc(C(=O)O)c3)cc2CCC(=O)O)ccc2c1OCCC2=O
The melting point of the first is lower: 90 to 92 °C for the first, 177 to 180 °C for the second.

Compared with `CN(C)C1CCN(Cc2ccc3c(c2)Cc2c(-c4cccs4)n[nH]c2-3)CC1`, `O=C1Nc2cc(CN3CCN(c4ccc(C(=O)N5CCCC5)cc4)CC3)cnc2N2CCC[C@@H]12` is higher in melting point: 96 to 98 °C for the first, 121 °C for the second.

Compared with `O=P(Cc1ccccc1)(C1CCCCC1)C1CCCCC1`, `NC(=O)N(CCCl)C(c1ccccc1)P(=O)(O)O` (centres undefined) is higher in melting point: 147 to 149 °C for the first, 195 °C for the second.

First: O=C1CN(NC(=O)Sc2ccccc2)C(=O)N1
Second: COC(=O)CC1OCCN(CCc2c[nH]c3ccccc23)C1=O (centres undefined)
The melting point of the first is higher: 152 to 155 °C for the first, 144 °C for the second.

Compared with `NC(=O)N1C(=O)C(C(=O)c2cc(Cl)cs2)c2ncc(Cl)cc21` (centres undefined), `O=C(N[C@H]1C[C@H](C(=O)O)Nc2cc(Cl)cc(Cl)c21)C1CCCCC1` (relative stereo) is lower in melting point: greater than 250 °C for the first, 190 to 195 °C for the second.

First: C=CC(=O)N1C(C)(C)CC(=C2CC(C)(C)N(C(=O)C=C)C(C)(C)C2)CC1(C)C
Second: CC(C)C1CCC2(C(=O)O)CCC3(C)C(CCC4C5(C)CCC(O)C(C)(C)C5CCC43C)C12 (centres undefined)
The melting point of the first is lower: 196 to 198 °C for the first, 287 to 289 °C for the second.

First: Oc1ccccc1NC(=S)NCc1ccncc1
Second: CCOC(=O)Cc1ccc(C(=O)CN2CCN(c3ccncc3)CC2)cc1
The melting point of the first is higher: 180 °C for the first, 122 to 124 °C for the second.

First: CCCCSc1ccc(C(O)CNC2CCCCC2)cc1C (centres undefined)
Second: CSC1=Nc2c(C)ccnc2N(C2CC2)c2ncccc21
The melting point of the first is lower: 136 °C for the first, 173 to 177 °C for the second.

First: CCCCc1nn(C(F)(F)F)c(C(=O)O)c1Cc1ccc(C2(C(=O)O)CC=CC2)s1
Second: O=C(c1ccc(SC2SCC(O)C(O)C2O)cc1)C(F)(F)F (centres undefined)
The melting point of the first is higher: 134 to 135 °C for the first, 133 to 134 °C for the second.

First: CCOC(=O)c1ncn2c1CN(Cc1ccc(OC)cc1OC)C(=O)c1cc(OC)ccc1-2
Second: CCSc1c(Nc2c(C)c(=O)c2=O)ccc2[nH]cc(CCCO)c12
The melting point of the first is higher: 204 °C for the first, 119 °C for the second.

First: COc1cc(OC)nc(OC(C(=O)O)C(C)(C)CO)n1 (centres undefined)
Second: CCC(=O)c1ccc(SC)cc1
The melting point of the first is higher: 104 to 110 °C for the first, 60 to 61 °C for the second.

First: CSC(C#N)=C1CCN(c2ccc(N3C[C@H](CNC(C)=O)OC3=O)cc2F)CC1
Second: O=[N+]([O-])c1ccc2[nH]cc(C3=CCNCC3)c2c1
The melting point of the first is lower: 205 to 207 °C for the first, 250 °C for the second.

First: COc1ccc2c(c1)CNCCO2
Second: N#CC1=C(c2ccncc2)Nc2n[nH]cc2C1c1cccc2nonc12 (centres undefined)
The melting point of the first is lower: 96 to 97 °C for the first, 236 °C for the second.

For `CSC1NC(=O)N(C(C)C)C(=O)N1N=C(C)C` (centres undefined), the melting point was 110 to 112 °C.
